Target: T1, Human TREX1 enzyme (amino acids 1-242) (Homo sapiens, UniProt Q9NSU2)
T1 construct: Human TREX1 enzyme (amino acids 1-242)
T1 sequence (Q9NSU2 1-242): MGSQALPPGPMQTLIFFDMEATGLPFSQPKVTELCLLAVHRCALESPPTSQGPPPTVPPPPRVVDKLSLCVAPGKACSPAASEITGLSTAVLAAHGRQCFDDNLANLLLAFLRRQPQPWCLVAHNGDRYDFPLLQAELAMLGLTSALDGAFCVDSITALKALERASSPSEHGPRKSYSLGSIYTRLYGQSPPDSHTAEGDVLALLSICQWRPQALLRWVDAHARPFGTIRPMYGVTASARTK
Test: Human TREX1 enzymatic assay with dsDNA native oligonucleotide (Picogreen fluorescence)
Type: biochemical
Settings: 2 mM dithiothreitol in assay buffer; 50 nM dsDNA oligonucleotide; 30 min preincubation at 25° C.; read-out: TREX1/Human + DTT IC50 AVG
Outline: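 TREX1 (0.8–0.16 nM final) preincubated with compound (300 μM–13 nM or 30 μM–1.5 nM, 2% DMSO) 30 min at 25 °C in Tris pH 7.7, 5 mM MgCl2, 2 mM DTT. Annealed dsDNA (50 nM) added for 5–15 min at 25 °C; EDTA quench with Picogreen fluorescence readout.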

SMILES | IC50 [µM]
O=C(O)c1ccc(-c2nc3ccccc3n2C2COC2)c(F)c1O [Example 141, 3-fluoro-2-hydroxy-4-(1-(oxetan-3-yl)-1H-benzo[d]imidazol-2-yl)benzoic acid] | > 100
O=C(O)c1ccc(-c2nc3ccncc3[nH]2)c(F)c1O [Example 147, 3-fluoro-2-hydroxy-4-(3H-imidazo[4,5-c]pyridin-2-yl)benzoic acid] | > 100
COc1cc(-c2nc3ccccc3n2C2CCCC2)c(C)c(O)c1O [Example 148, 4-(1-cyclopentyl-1H-benzo[d]imidazol-2-yl)-6-methoxy-3-methylbenzene-1,2-diol] | 1 to 10
COc1cc(-c2nc3ccccc3n2C2CCOCC2)c(C)c(O)c1O [Example 149, 6-methoxy-3-methyl-4-(1-(tetrahydro-2H-pyran-4-yl)-1H-benzo[d]imidazol-2-yl)benzene-1,2-diol] | 10 to 100
COc1cc(-c2nc3ccccc3n2C2(C)CCOC2)c(C)c(O)c1O (centres unmarked) [Example 158, 6-methoxy-3-methyl-4-(1-(3-methyltetrahydrofuran-3-yl)-1H-benzo[d]imidazol-2-yl)benzene-1,2-diol] | 1 to 10
O=C(O)c1ccc(-c2nc3ccccc3n2C2COC2)c(C(F)(F)F)c1O [Example 161, 2-hydroxy-4-(1-(oxetan-3-yl)-1H-benzo[d]imidazol-2-yl)-3-(trifluoromethyl)benzoic acid] | > 100
Oc1cc(-c2nc3ccccc3n2C2COC2)c2c(c1O)OCC2 [Example 162, 4-(1-(oxetan-3-yl)-1H-benzo[d]imidazol-2-yl)-2,3-dihydrobenzofuran-6,7-diol] | > 100
Oc1cc(-c2nc3ccccc3n2C2COC2)c2c(c1O)OCCC2 [Example 163, 5-(1-(oxetan-3-yl)-1H-benzo[d]imidazol-2-yl)chroman-7,8-diol] | 0.1 to 1
COc1cc(-c2nc3ccccc3n2C2CNC2)c(C)c(O)c1O [Example 165, 4-(1-(azetidin-3-yl)-1H-benzo[d]imidazol-2-yl)-6-methoxy-3-methylbenzene-1,2-diol] | 10 to 100
COc1cc(-c2nc3ccc(N4CCC4)cc3n2C2CCOC2)cc(C(=O)O)c1O (centres unmarked) [Example 166, 5-(6-(azetidin-1-yl)-1-(tetrahydrofuran-3-yl)-1H-benzo[d]imidazol-2-yl)-2-hydroxy-3-methoxybenzoic acid] | 10 to 100
COc1cc(-c2nc3ccccc3n2C2CCC2)c(C)c(O)c1O [Example 168, 4-(1-cyclobutyl-1H-benzo[d]imidazol-2-yl)-6-methoxy-3-methylbenzene-1,2-diol] | 0.1 to 1
COc1cc(-c2nc3ccccc3n2C2(C)COC2)c(C)c(O)c1O [Example 169, 6-methoxy-3-methyl-4-(1-(3-methyloxetan-3-yl)-1H-benzo[d]imidazol-2-yl)benzene-1,2-diol] | 0.1 to 1
COc1cc(-c2nc3ccccc3n2[C@H]2COC[C@@H]2O)c(C)c(O)c1O [Example 170, 4-(1-((3S,4R)-4-hydroxytetrahydrofuran-3-yl)-1H-benzo[d]imidazol-2-yl)-6-methoxy-3-methylbenzene-1,2-diol] | 10 to 100
Cc1cc(C(=O)O)c(O)cc1-c1nc2ccccc2n1C1COC1 [Example 171, 2-hydroxy-5-methyl-4-(1-(oxetan-3-yl)-1H-benzo[d]imidazol-2-yl)benzoic acid] | > 100
COCCn1c(-c2cc(OC)c(O)c(O)c2C)nc2ccccc21 [Example 172, 6-methoxy-4-[1-(2-methoxyethyl)-1H-1,3-benzodiazol-2-yl]-3-methylbenzene-1,2-diol] | > 100
CCc1c(-c2nc3ccccc3n2C2(C)COC2)cc(OC)c(O)c1O [Example 173, 3-ethyl-6-methoxy-4-[1-(3-methyloxetan-3-yl)-1H-1,3-benzodiazol-2-yl]benzene-1,2-diol] | 10 to 100

Next, values leading:

IC50 [µM] | SMILES
> 100 | COc1cc(-c2nc3cc(N4CC(C#N)C4)ccc3[nH]2)cc(O)c1O [Example 138, 1-(2-(3,4-dihydroxy-5-methoxyphenyl)-1H-benzo[d]imidazol-5-yl)azetidine-3-carbonitrile]
1 to 10 | COc1cc(-c2nc3cc(N4CC(S(C)(=O)=O)C4)ccc3[nH]2)cc(O)c1O [Example 139, 3-methoxy-5-(5-(3-(methylsulfonyl)azetidin-1-yl)-1H-benzo[d]imidazol-2-yl)benzene-1,2-diol]
10 to 100 | O=C(O)c1cc(-c2nc3cc(N4CCOCC4)ccc3[nH]2)ccc1O [Example 140, 2-hydroxy-5-(5-morpholino-1H-benzo[d]imidazol-2-yl)benzoic acid]
> 100 | COc1cc(-c2nc3cc(N4CC5(CNC5)C4)ccc3[nH]2)cc(O)c1O [Example 142, 5-(5-(2,6-diazaspiro[3.3]heptan-2-yl)-1H-benzo[d]imidazol-2-yl)-3-methoxybenzene-1,2-diol]
> 100 | COc1cc(-c2nc3cc(N4CC(C)C4)ccc3[nH]2)cc(O)c1O [Example 143, 3-methoxy-5-(5-(3-methylazetidin-1-yl)-1H-benzo[d]imidazol-2-yl)benzene-1,2-diol]
10 to 100 | COc1cc(-c2nc3cc(N4CC(OC)C4)ccc3[nH]2)cc(O)c1O [Example 144, 3-methoxy-5-(5-(3-methoxyazetidin-1-yl)-1H-benzo[d]imidazol-2-yl)benzene-1,2-diol]
> 100 | COc1cc(-c2nc3cc(N4CC(F)C4)ccc3[nH]2)cc(O)c1O [Example 145, 5-(5-(3-fluoroazetidin-1-yl)-1H-benzo[d]imidazol-2-yl)-3-methoxybenzene-1,2-diol]
1 to 10 | COc1cc(-c2nc3cc(N4CC(NS(C)(=O)=O)C4)ccc3[nH]2)cc(O)c1O [Example 146, N-(1-(2-(3,4-dihydroxy-5-methoxyphenyl)-1H-benzo[d]imidazol-5-yl)azetidin-3-yl)methanesulfonamide]
1 to 10 | O=C(O)c1cc(F)c(-c2nc3cc(N4CCC4)ccc3[nH]2)cc1O [Example 150, 4-(5-(azetidin-1-yl)-1H-benzo[d]imidazol-2-yl)-5-fluoro-2-hydroxybenzoic acid]
10 to 100 | COc1cc(-c2nc3cc(N4CCOCC4)ccc3[nH]2)cc(C(=O)O)c1O [Example 151, 2-hydroxy-3-methoxy-5-(5-morpholino-1H-benzo[d]imidazol-2-yl)benzoic acid]
> 100 | COc1cc(-c2nc3cc(N4CC5(CN(C)C5)C4)ccc3[nH]2)cc(O)c1O [Example 152, 3-methoxy-5-(5-(6-methyl-2,6-diazaspiro[3.3]heptan-2-yl)-1H-benzo[d]imidazol-2-yl)benzene-1,2-diol]
10 to 100 | COc1cc(-c2nc3cc(N4CC5(C4)CN(C(C)C)C5)ccc3[nH]2)cc(O)c1O [Example 153, 5-(5-(6-isopropyl-2,6-diazaspiro[3.3]heptan-2-yl)-1H-benzo[d]imidazol-2-yl)-3-methoxybenzene-1,2-diol]
1 to 10 | COc1cc(-c2nc3cc(N4CCN(C(=O)c5cccc(C)c5)CC4)ccc3[nH]2)cc(O)c1O [Example 154, (4-(2-(3,4-dihydroxy-5-methoxyphenyl)-1H-benzo[d]imidazol-5-yl)piperazin-1-yl)(m-tolyl)methanone]
10 to 100 | COc1cc(-c2nc3cc(N4CCN(C(=O)c5ccccc5C(=O)O)CC4)ccc3[nH]2)cc(O)c1O [Example 155, 2-(4-(2-(3,4-dihydroxy-5-methoxyphenyl)-1H-benzo[d]imidazol-5-yl)piperazine-1-carbonyl)benzoic acid]
10 to 100 | COc1cc(-c2nc3cc(N4CCOCC4)ccc3s2)cc(O)c1O [Example 156, 3-methoxy-5-(5-morpholinobenzo[d]thiazol-2-yl)benzene-1,2-diol]
1 to 10 | COc1cc(-c2nc3cc(N4CCC4)ccc3[nH]2)c(F)c(O)c1O [Example 157, 4-(5-(azetidin-1-yl)-1H-benzo[d]imidazol-2-yl)-3-fluoro-6-methoxybenzene-1,2-diol]
1 to 10 | COc1cc(-c2nc3cc(N4CCN(C(=O)c5ccccc5)CC4)ccc3[nH]2)c(F)c(O)c1O [Example 159, (4-(2-(2-fluoro-3,4-dihydroxy-5-methoxyphenyl)-1H-benzo[d]imidazol-5-yl)piperazin-1-yl)(phenyl)methanone]
> 100 | COc1cc(-c2nc3cc(N4CCC(N5CCCCC5)CC4)ccc3[nH]2)cc(O)c1O [Example 160, 5-(5-([1,4′-bipiperidin]-1′-yl)-1H-benzo[d]imidazol-2-yl)-3-methoxybenzene-1,2-diol]
1 to 10 | COc1cc(-c2nc3cc(N4CCC4)c(C)cc3[nH]2)cc(O)c1O [Example 164, 5-(5-(azetidin-1-yl)-6-methyl-1H-benzo[d]imidazol-2-yl)-3-methoxybenzene-1,2-diol]
1 to 10 | COc1cc(-c2nc3ccccc3n2C2COC2)c(F)c(O)c1O [Example 167, 3-fluoro-6-methoxy-4-(1-(oxetan-3-yl)-1H-benzo[d]imidazol-2-yl)benzene-1,2-diol]
0.1 to 1 | COc1ccc2c(c1)nc(-c1cc(OC)c(O)c(O)c1C)n2C1CCC1 [Example 176, 4-(1-cyclobutyl-5-methoxy-1H-1,3-benzodiazol-2-yl)-6-methoxy-3-methylbenzene-1,2-diol]
0.1 to 1 | COc1cc(-c2nc3ccc(C(=O)N4CCC4)cc3n2C2(C)COC2)c(F)c(O)c1O [Example 177, 4-[6-(azetidine-1-carbonyl)-1-(3-methyloxetan-3-yl)-1H-1,3-benzodiazol-2-yl]-3-fluoro-6-methoxybenzene-1,2-diol]

From patent publication US20230234943A1, “TREX1 INHIBITORS AND USES THEREOF” (Tempest Therapeutics, Inc., priority 2020, published 2023)
